This note sets out measurements from patent US7227023B2, “Quinoline 3-amino chroman derivatives” (Wyeth, priority 2003, dated 2007).

One assay addresses T1, 5-HT Transporter (Rattus norvegicus, UniProt P31652).
T1 construct: ability to displace ^3H-paroxetine from male rat cortical membranes; from tissue; host or cells: male rat cortex (membranes)
Kind of assay: 3H-paroxetine displacement, affinity for the serotonin transporter. The class given is binding. As to conditions: male rat cortical membranes.

In assay [1] the target is T2, cloned human 5-HT1A receptors (Homo sapiens, UniProt P08908).
T2 construct: expressed in transfected cells
T2 sequence (P08908 1-422): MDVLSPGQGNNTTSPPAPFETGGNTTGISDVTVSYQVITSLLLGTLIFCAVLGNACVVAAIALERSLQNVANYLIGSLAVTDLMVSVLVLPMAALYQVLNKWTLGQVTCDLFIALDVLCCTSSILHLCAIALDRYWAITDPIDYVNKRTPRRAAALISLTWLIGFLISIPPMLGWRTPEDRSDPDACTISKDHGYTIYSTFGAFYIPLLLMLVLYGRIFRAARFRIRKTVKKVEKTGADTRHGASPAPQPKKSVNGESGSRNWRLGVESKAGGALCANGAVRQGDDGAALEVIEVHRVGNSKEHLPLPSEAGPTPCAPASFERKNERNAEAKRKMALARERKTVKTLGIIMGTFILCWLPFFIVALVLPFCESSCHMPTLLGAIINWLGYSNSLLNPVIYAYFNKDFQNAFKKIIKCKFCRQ
The assay is described as follows: 35S-GTPγS binding assay, agonist activity at 5-HT1A receptors. The class given is biochemical. The following applies: membranes containing cloned human 5-HT1A receptors; for EC50: read-out: 5-HT1A Function EC50; for Emax: read-out: 5-HT1A Function Emax (maximum stimulatory effect). An excerpt:
The agonist activity at 5-HT1A receptors was established by using a ^35S-GTPγS binding assay similar to that used by Lazareno and Birdsall (Br. J. Pharmacol., 1993, 109:1120). The binding assay determines the test compound's ability to affect the binding of ^35S-GTPγS to membranes containing cloned human 5-HT1A receptors. Agonists produce an increase in binding whereas antagonists produce no increase but rather reverse the effects of the standard agonist 8-OH-DPAT. The test compound's maximum stimulatory effect is represented as the Emax, while its potency is defined by the EC50.

For the next assay, the target named is T3, human 5-HT1A receptors (Homo sapiens, UniProt P08908).
T3 construct: expressed in transfected cells; host or cells: CHO cells, stably transfected
T3 sequence (P08908 1-422): T2 sequence (P08908 1-422)
The assay is described as follows: [3H] 8-OH-DPAT displacement, affinity for the 5-HT1A receptor. The class given is binding. As to conditions: CHO cells stably transfected with human 5-HT1A receptors. An excerpt: High affinity for the serotonin 5-HT1A receptor was established by testing the claimed compound's ability to displace [^3H] 8-OH-DPAT (dipropylaminotetralin) from the 5-HT1A serotonin receptor following a modification of the procedure of Hall et al. (J. Neurochem., 1985, 44: 1685) which utilizes CHO cells stably transfected with human 5-HT1A receptors.

Molecules are shown by their SMILES.

T1 sequence (P31652 whole entry): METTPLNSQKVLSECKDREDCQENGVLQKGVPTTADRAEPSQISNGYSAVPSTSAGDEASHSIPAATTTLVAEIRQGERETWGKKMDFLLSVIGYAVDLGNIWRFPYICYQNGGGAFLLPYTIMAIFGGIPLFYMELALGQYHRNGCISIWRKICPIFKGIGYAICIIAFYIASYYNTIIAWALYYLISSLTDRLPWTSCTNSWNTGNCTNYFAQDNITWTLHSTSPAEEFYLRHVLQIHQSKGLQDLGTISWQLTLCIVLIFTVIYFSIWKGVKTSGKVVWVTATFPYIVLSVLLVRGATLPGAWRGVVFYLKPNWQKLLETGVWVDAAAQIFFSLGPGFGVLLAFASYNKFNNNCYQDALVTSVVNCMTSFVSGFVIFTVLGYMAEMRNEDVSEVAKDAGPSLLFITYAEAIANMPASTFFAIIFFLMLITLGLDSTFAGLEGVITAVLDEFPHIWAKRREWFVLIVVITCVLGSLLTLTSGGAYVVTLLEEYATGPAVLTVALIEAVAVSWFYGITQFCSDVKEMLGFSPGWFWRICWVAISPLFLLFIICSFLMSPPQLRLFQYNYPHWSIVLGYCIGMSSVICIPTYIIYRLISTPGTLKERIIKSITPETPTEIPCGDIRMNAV

Usually Ki stands for the equilibrium dissociation constant of an inhibitor or competing ligand from its target. As a reminder, the EC50 is the concentration giving half of the maximal effect. Turning to `Fc1ccc2[nH]cc(CCCNC3COc4c(ccc5ncccc45)C3)c2c1` (single isomer, unassigned; (-)) [Compound 7b, (−)-N-[3-(5-fluoro-1H-indol-3-yl)propyl]-3,4-dihydro-2H-pyrano[2,3-f]quinolin-3-amine], the figures for the Ki on 5-HT Transporter and on human 5-HT1A receptors were 4.2 nM and 16.2 nM, respectively. Besides, in assay [1], the concentration giving a half-maximal response (EC50) was determined as 170 nM. The “5-HT1A Function Emax (maximum stimulatory effect)” value in assay [1] (value in parentheses, in % (unit assumed)) was 100.
One may read the Emax as the greatest response seen or fitted, relative to the assay's reference. As to `CCCN(CCCc1c[nH]c2ccc(F)cc12)C1COc2ccc3ncccc3c2C1` (stereo not shown) [Compound 2, N-[3-(5-fluoro-1H-indol-3-yl)propyl]-N-propyl-2,3-dihydro-1H-pyrano[3,2-f]quinolin-2-amine], the Ki at 5-HT Transporter was determined as 6.5 nM; at human 5-HT1A receptors, 91 nM. The EC50 in assay [1] turned out to be 2220 nM. For the same molecule, the Emax in assay [1] (value in parentheses) was determined as 100%.
Taken in the same sequence, the figures for `CCCN(CCc1c[nH]c2ccc(F)cc12)C1COc2ccc3ncccc3c2C1` (stereo not shown) [Compound 6, N-[2-(5-fluoro-1H-indol-3-yl)ethyl]-N-propyl-2,3-dihydro-1H-pyrano[3,2-f]quinolin-2-amine] were 40 nM, 478 nM, 190 nM and 41.3%.
In the case of `Fc1ccc2[nH]cc(CCCNC3COc4c(ccc5ncccc45)C3)c2c1` (stereo not shown) [Compound 7, N-[3-(5-fluoro-1H-indol-3-yl)propyl]-3,4-dihydro-2H-pyrano[2,3-f]quinolin-3-amine], the results for the Ki at 5-HT Transporter and at human 5-HT1A receptors were 2.83 nM and 13.6 nM, respectively. In addition, the half-maximal effective concentration (EC50) in assay [1] was determined as 1200 nM. For the same molecule, in assay [1] (value in parentheses), the Emax amounted to 100%.
